Results published in publication PMC9562282, “Reaction of Thiosulfate Dehydrogenase with a Substrate Mimic Induces Dissociation of the Cysteine Heme Ligand Giving Insights into the Mechanism of Oxidative Catalysis” (Journal of the American Chemical Society, 2022).

Target: T1, CjTsdA (Campylobacter jejuni thiosulfate dehydrogenase) (Campylobacter jejuni, UniProt A0A5Y8VWW6)
T1 construct: diheme c-type cytochrome (two covalent c hemes), mass 37,202 Da by LCMS with unmodified Cys138; host and tags only in supplement
Assay: LCMS of intact protein (supported by absorbance and MCD spectroscopy)
Assay type: binding
Conditions: covalent; cysteinyl-138 sulfonate adduct; 1.5 mM sulfite, anaerobic 50 mM HEPES, 50 mM NaCl, pH 7, 20 °C; ferricyanide as oxidant

## O=S(O)O [sulfite]
  LCMS of intact protein (supported by absorbance and MCD spectroscopy): sulfite is shown to bind to the active site of CjTsdA
